Reference: US9573954B2, “Pyrazolopyrimidine compounds” (University Health Network, priority 2012, dated 2017)

Key:
[1] = test system: Ovarian 2393A tumor initiating cells; test: Tumor-initiating cell growth inhibition, Alamar Blue assay, ovarian TICs; assay type: cell-based; conditions: 144 h; Table 2; ovarian TICs, 6 days, Alamar Blue; read-out: Tumor Initiating Cell GI50 Range Ovarian 2393A
Summary of the method: (§1)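 Colon TICs (4,000/well, non-TC plates) and ovarian TICs (1,000/well, TC plates) kept in serum-free DMEM:F12 with B-27, heparin, bFGF and EGF. Compound added after 24 h at 0.1% DMSO, then 9 days (colon) or 6 days (ovarian) at 37° C. GI50 from Alamar Blue fluorescence (ex 544/em 590) after 4 h.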

[2] = test system: Colon 12 tumor initiating cells; test: Tumor-initiating cell growth inhibition, Alamar Blue assay, colon TICs; assay type: cell-based; conditions: 216 h; Table 2; colon TICs, 9 days, Alamar Blue; read-out: Tumor Initiating Cell GI50 Range Colon 12
Summary of the method: as §1

[3] = test system: breast cancer cells (MDA-MB-231); test: Cancer cell line growth inhibition, Sulforhodamine B assay, MDA-MB-231; assay type: cell-based; conditions: Homo sapiens, 120 h; Table 2; MDA-MB-231, 5 days, SRB; read-out: Cancer Cell Line GI50 Range MDA-MB-231
Procedure: (§2) Breast cancer cells (MDA-MB-231 and MDA-MB-468), colon cancer cells (HCT116) and ovarian cancer cells (PA-1 and OVCAR-3) were seeded (1000 to 4000 in 80 μl per well depending on the cell growth rate) into 96 well plates 24 hours before compound overlay. Compounds were prepared as 10 mM stock solutions in 100% DMSO which were diluted with DMEM (Dulbecco's Modified Eagle's Medium) cell growth Medium (Invitrogen, Burlington, ON, Canada) containing 10% FBS (Fetal Bovine Serum) to concentrations ranging from 50 nM to 250 μM. Aliquots (20 μl) from each concentration were overlaid to 80 μl of the pre-seeded cells in the 96 well plates to make final concentrations of 10 nM to 50 μM. The cells were cultured for 5 days before the Sulforhodamine B assay (SRB) was performed to determine the compound's cell growth inhibition activity.
(§3) Sulforhodamine B (purchased from Sigma, Oakville, ON, Canada) is a water-soluble dye that binds to the basic amino acids of the cellular proteins. Thus, colorimetric measurement of the bound dye provides an estimate of the total protein mass that is related to the cell number. the cells are fixed in situ by gently aspirating off the culture media and adding 50 μl ice cold 10% Trichloroacetic Acid (TCA) per well and incubate at 4° C. for 30-60 min, The plates are washed with H2O five times and allowed to air dry for 5 min. Addition of 50 μl 0.4% (w/v) SRB solution in 1% (v/v) acetic acid to each well and incubation for 30 min at RT completes the staining reaction. Following staining, plates are washed four times with 1% acetic acid to remove unbound dye and then allowed to air dry for 5 min. The stain is solubilized with 100 μl of 10 mM Tris pH 10.5 per well. Absorbance is read at 570 nm.
(§4) The percentage (%) of relative growth inhibition was calculated by comparing to DMSO treated only cells (100%). GI50's were determined for compounds with cytotoxic activity. The GI50 was calculated using GraphPad PRISM software (GraphPad Software, Inc., San Diego, Calif., USA).
(§5) In Table 2 below, GI50 value ranges for compound examples against breast cancer cell lines (MDA-MB-231), colon cancer cell lines (HCT116) and ovarian cancer cell lines (PA-1) are given.

[4] = test system: ovarian cancer cells (PA-1); test: Cancer cell line growth inhibition, Sulforhodamine B assay, PA-1; assay type: cell-based; conditions: 120 h; Table 2; PA-1, 5 days, SRB; read-out: Cancer Cell Line GI50 Range PA-1
Procedure: as §2, §3, §4
In Table 1 below, GI50 value ranges for compound examples against breast cancer cell lines (MDA-MB-468), colon cancer cell lines (HCT116) and ovarian cancer cell lines (PA-1) are given.
as §5

human TTK = molecular target: T1, human TTK (Homo sapiens, UniProt P33981); test: TTK inhibition assay (indirect ELISA); assay type: biochemical; conditions: Table 2; 16 μM ATP (asterisk); read-out: TTK IC50 Range
T1 construct: Active TTK was purchased from Invitrogen as an amino terminal GST fusion of full length human TTK; purchased Invitrogen
T1 sequence (P33981 1-857): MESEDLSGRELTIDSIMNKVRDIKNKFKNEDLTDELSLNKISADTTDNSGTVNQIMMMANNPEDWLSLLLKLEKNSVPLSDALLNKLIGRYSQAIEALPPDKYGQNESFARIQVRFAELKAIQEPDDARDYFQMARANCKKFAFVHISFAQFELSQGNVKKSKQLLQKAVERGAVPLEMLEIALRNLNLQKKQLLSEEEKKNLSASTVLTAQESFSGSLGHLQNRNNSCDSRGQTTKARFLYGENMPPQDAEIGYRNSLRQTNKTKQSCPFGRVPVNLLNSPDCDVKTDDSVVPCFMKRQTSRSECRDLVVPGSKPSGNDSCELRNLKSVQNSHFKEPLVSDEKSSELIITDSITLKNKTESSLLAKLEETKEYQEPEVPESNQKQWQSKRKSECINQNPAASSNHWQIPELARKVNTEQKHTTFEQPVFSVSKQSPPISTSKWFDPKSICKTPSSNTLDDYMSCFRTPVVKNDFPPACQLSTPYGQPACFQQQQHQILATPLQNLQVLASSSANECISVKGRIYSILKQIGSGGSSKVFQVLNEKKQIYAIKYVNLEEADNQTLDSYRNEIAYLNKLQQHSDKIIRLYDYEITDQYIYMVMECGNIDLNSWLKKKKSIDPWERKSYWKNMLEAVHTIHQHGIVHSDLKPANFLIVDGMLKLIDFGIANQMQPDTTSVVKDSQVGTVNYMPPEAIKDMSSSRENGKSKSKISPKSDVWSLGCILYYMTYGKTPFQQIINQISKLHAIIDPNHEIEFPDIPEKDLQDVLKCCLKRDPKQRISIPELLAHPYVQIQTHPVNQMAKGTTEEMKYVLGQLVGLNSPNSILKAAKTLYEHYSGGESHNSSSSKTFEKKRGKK
Summary of the method: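 Activity detected by indirect ELISA after compounds sat with full-length GST-TTK for 5 min prior to starting the reaction with ATP. IC50 came from a four-parameter logistic curve of % inhibition, calculated against background and uninhibited control wells.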

[5] = test system: colon cancer cells (HCT116); test: Cancer cell line growth inhibition, Sulforhodamine B assay, HCT116; assay type: cell-based; conditions: Homo sapiens, HCT-116, 120 h, Table 2; HCT116, 5 days, SRB; read-out: Cancer Cell Line GI50 Range HCT116
Summary of the method: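 HCT116 cells, 1000–4000 per well, seeded 24 h ahead, then treated 5 days with compound at 10 nM to 50 μM final in DMEM with 10% FBS. Growth measured by sulforhodamine B staining after TCA fixation, A570; GI50 from inhibition relative to DMSO-only cells.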

| SMILES | GI50 [1] [nM] | GI50 [2] [nM] | GI50 [3] [nM] | GI50 [4] [nM] | IC50 (human TTK) [nM] | GI50 [5] [nM] |
| --- | --- | --- | --- | --- | --- | --- |
| COCCNc1cc(Oc2ccccc2)nc2c(-c3ccc(C(=O)NC4CC4)cc3)cnn12 [Example B2, N-cyclopropyl-4-(7-((2-methoxyethyl)amino)-5-phenoxypyrazolo[1,5-a]pyrimidin-3-yl)benzamide] | > 500 | 100 to 500 | > 500 | 100 to 500 | < 100 | > 500 |
| Cc1cc(-c2cnn3c(NCCN4CCOCC4)cc(Oc4ccccc4)nc23)ccc1C(=O)NC1CC1 [Example B5, N-cyclopropyl-2-methyl-4-(7-((2-morpholinoethyl)amino)-5-phenoxypyrazolo[1,5-a]pyrimidin-3-yl)benzamide] | ≤ 100 | ≤ 100 | ≤ 100 | ≤ 100 | < 100 | ≤ 100 |
| O=C(NC1CC1)c1ccc(-c2cnn3c(NCCN4CCOCC4)cc(Oc4ccccc4)nc23)cc1 [Example B6, N-cyclopropyl-4-(7-((2-morpholinoethyl)amino)-5-phenoxypyrazolo[1,5-a]pyrimidin-3-yl)benzamide] | 100 to 500 | 100 to 500 | 100 to 500 | ≤ 100 | < 100 | 100 to 500 |
| COCCNc1cc(Oc2ccccc2)nc2c(-c3ccc(C(=O)NC4CC4)c(C)c3)cnn12 [Example B13, N-cyclopropyl-4-(7-((2-methoxyethyl)amino)-5-phenoxypyrazolo[1,5-a]pyrimidin-3-yl)-2-methylbenzamide] | 100 to 500 | ≤ 100 | ≤ 100 | ≤ 100 | < 100 | ≤ 100 |
| Cc1cc(-c2cnn3c(NCC4CCOCC4)cc(NC4CCCC4)nc23)ccc1C(=O)NC1CC1 [Example B14, 4-(5-(cyclopentylamino)-7-(((tetrahydro-2H-pyran-4-yl)methyl)amino)pyrazolo[1,5-a]pyrimidin-3-yl)-N-cyclopropyl-2-methylbenzamide] | ≤ 100 | ≤ 100 | ≤ 100 | ≤ 100 | < 100 | ≤ 100 |
| Cc1cc(-c2cnn3c(NCCCN4CCOCC4)cc(Oc4ccccc4)nc23)ccc1C(=O)NC1CC1 [Example B19, N-cyclopropyl-2-methyl-4-(7-((3-morpholinopropyl)amino)-5-phenoxypyrazolo[1,5-a]pyrimidin-3-yl)benzamide] | 100 to 500 | 100 to 500 | 100 to 500 | ≤ 100 | < 100 | 100 to 500 |

Now from value to molecule:

| GI50 [1] [nM] | GI50 [2] [nM] | GI50 [3] [nM] | GI50 [4] [nM] | IC50 (human TTK) [nM] | GI50 [5] [nM] | SMILES |
| --- | --- | --- | --- | --- | --- | --- |
| ≤ 100 | ≤ 100 | ≤ 100 | ≤ 100 | < 100 | ≤ 100 | Cc1cc(-c2cnn3c(NCC4CCOCC4)cc(Oc4ccccc4)nc23)ccc1C(=O)NC1CC1 [Example B1] |
| 100 to 500 | 100 to 500 | 100 to 500 | ≤ 100 | < 100 | ≤ 100 | O=C(NC1CC1)c1ccc(-c2cnn3c(NCC4CCOCC4)cc(Oc4ccccc4)nc23)cc1 [Example B3, N-cyclopropyl-4-(5-phenoxy-7-(((tetrahydro-2H-pyran-4-yl)methyl)amino)pyrazolo[1,5-a]pyrimidin-3-yl)benzamide] |
| ≤ 100 | ≤ 100 | ≤ 100 | ≤ 100 | < 100 | ≤ 100 | O=C(NC1CC1)c1ccc(-c2cnn3c(NCC4CCOCC4)cc(Oc4ccccc4)nc23)cc1Cl [Example B7, 2-chloro-N-cyclopropyl-4-(5-phenoxy-7-(((tetrahydro-2H-pyran-4-yl)methyl)amino)pyrazolo[1,5-a]pyrimidin-3-yl)benzamide] |
| 100 to 500 | 100 to 500 | 100 to 500 | ≤ 100 | < 100 | 100 to 500 | O=C(NC1CC1)c1ccc(-c2cnn3c(NCC4CCOCC4)cc(Oc4ccccc4)nc23)cc1F [Example B8, N-cyclopropyl-2-fluoro-4-(5-phenoxy-7-(((tetrahydro-2H-pyran-4-yl)methyl)amino)pyrazolo[1,5-a]pyrimidin-3-yl)benzamide] |
| ≤ 100 | ≤ 100 | ≤ 100 | ≤ 100 | < 100 | ≤ 100 | Cc1cc(-c2cnn3c(NCC4CCOCC4)cc(Oc4cccnc4)nc23)ccc1C(=O)NC1CC1 [Example B9, N-cyclopropyl-2-methyl-4-(5-(pyridin-3-yloxy)-7-(((tetrahydro-2H-pyran-4-yl)methyl)amino)pyrazolo[1,5-a]pyrimidin-3-yl)benzamide] |
| ≤ 100 | ≤ 100 | ≤ 100 | ≤ 100 | < 100 | ≤ 100 | Cc1cc(-c2cnn3c(NCC4CCOCC4)cc(Oc4cccc(F)c4)nc23)ccc1C(=O)NC1CC1 [Example B12, N-cyclopropyl-4-(5-(3-fluorophenoxy)-7-(((tetrahydro-2H-pyran-4-yl)methyl)amino)pyrazolo[1,5-a]pyrimidin-3-yl)-2-methylbenzamide] |
| ≤ 100 | ≤ 100 | ≤ 100 | ≤ 100 | < 100 | ≤ 100 | Cc1cc(-c2cnn3c(NCCC4CCOCC4)cc(Oc4ccccc4)nc23)ccc1C(=O)NC1CC1 [Example B20, N-cyclopropyl-2-methyl-4-(5-phenoxy-7-((2-(tetrahydro-2H-pyran-4-yl)ethyl)amino)pyrazolo[1,5-a]pyrimidin-3-yl)benzamide] |
